Assay results from patent US20240327353A1.
Where two headings read alike, the source gives them in different places.

Legend:
5-HT1A = molecular target: T1, 5-HT1A (Homo sapiens, UniProt P08908); test: Radioligand binding, cell membranes; settings: for pKi 5-HT1A: [^3H]5-CT, mean of n independent experiments
T1 construct: host or cells: HEK293T, transient
T1 sequence (P08908 1-422): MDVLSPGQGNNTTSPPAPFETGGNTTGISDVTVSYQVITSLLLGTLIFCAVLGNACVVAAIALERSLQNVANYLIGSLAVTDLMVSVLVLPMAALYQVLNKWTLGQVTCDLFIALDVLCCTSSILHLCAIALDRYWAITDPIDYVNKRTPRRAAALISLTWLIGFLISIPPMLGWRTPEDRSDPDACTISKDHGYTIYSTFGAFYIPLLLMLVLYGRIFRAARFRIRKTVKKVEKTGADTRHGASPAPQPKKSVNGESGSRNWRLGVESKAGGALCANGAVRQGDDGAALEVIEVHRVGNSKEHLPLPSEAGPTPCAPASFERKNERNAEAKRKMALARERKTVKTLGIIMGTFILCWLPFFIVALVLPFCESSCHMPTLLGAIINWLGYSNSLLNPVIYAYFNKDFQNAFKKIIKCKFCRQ
Protocol: (§1) Transfections were performed for 48 hours.

5-HT7 = 5-HT7 (Homo sapiens, UniProt P34969); test: Radioligand binding, cell membranes; settings: for pKi 5-HT7: [^3H]5-CT, mean of n independent experiments
Protocol: as §1

D2L = D2L (Homo sapiens, UniProt P14416); test: Radioligand binding, cell membranes; settings: for pKi D2L: [^3H]spiperone, mean of n independent experiments
Protocol: as §1

D3 = D3 (Homo sapiens, UniProt P35462); test: Radioligand binding, cell membranes
Protocol: as §1

C322K^6.34 5-HT2AR = molecular target: T2, C322K^6.34 5-HT2AR (Homo sapiens, UniProt P28223, C322K); test: IP1 accumulation assay, inverse agonism at constitutively activated receptor; format: cell-based
T2 construct: expressed in transfected cells; host or cells: clonal cells
Protocol: as §1

α1A-adrenergic receptor [1] = molecular target: T3, α1A-adrenergic receptor (Homo sapiens, UniProt P35348); test: biochemical
T3 sequence (P35348 1-466): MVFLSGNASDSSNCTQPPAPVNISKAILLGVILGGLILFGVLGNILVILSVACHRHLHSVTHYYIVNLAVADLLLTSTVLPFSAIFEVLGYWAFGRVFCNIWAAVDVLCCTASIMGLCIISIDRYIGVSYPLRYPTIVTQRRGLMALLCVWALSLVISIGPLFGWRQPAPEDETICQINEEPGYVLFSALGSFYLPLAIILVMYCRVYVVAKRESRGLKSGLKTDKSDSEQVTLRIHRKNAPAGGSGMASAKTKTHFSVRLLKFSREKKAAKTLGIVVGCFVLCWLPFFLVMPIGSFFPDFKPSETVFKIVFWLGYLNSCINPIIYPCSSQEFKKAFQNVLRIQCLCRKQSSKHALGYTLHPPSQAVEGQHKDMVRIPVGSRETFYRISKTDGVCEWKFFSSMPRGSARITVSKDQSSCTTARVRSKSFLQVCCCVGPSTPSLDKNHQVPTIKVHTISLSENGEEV

α1B-adrenergic receptor [2] = molecular target: T4, α1B-adrenergic receptor (Homo sapiens, UniProt P35368); test: biochemical
T4 sequence (P35368 1-520): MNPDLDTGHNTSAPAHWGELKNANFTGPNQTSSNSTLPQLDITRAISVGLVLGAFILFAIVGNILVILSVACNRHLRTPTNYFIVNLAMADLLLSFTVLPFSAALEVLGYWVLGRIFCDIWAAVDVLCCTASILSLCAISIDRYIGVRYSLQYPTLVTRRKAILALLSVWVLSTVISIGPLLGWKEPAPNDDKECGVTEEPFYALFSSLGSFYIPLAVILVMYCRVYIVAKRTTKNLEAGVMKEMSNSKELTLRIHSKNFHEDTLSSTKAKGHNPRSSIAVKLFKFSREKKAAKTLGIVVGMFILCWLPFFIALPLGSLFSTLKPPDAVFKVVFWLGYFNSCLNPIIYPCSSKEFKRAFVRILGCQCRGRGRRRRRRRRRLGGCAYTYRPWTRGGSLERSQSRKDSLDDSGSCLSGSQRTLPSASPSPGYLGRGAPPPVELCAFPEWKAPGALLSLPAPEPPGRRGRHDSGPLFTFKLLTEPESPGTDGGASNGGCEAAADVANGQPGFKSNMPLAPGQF

W158I^4.56 H1R [3] = molecular target: T5, W158I^4.56 H1R (Homo sapiens, UniProt P35367, W158I)
D231F^5.35 5-HT2AR = D231F^5.35 5-HT2AR (Homo sapiens, UniProt P28223, D231F); test: Exploratory saturation radioligand binding at point-mutated 5-HT2AR; settings: membranes of transfected HEK293 cells (FIGS. 14A-14D)
W158I^4.56 H1R [4] = molecular target: T5, W158I^4.56 H1R; remark: listed apart in the source
male C57BL/6J mice [5] = test: Locomotor activity, compound alone (open field); format: in vivo; settings: 3 mg*kg^−1 s.c. (FIG. 3C)
5-HT2BR [6] = molecular target: T6, 5-HT2BR (Homo sapiens, UniProt P41595)
α1A-adrenergic receptor [7] = molecular target: T3, α1A-adrenergic receptor
α1B-adrenergic receptor [8] = molecular target: T4, α1B-adrenergic receptor
human wild-type 5-HT2B = human wild-type 5-HT2B (Homo sapiens, UniProt P41595); test: IP-One HTRF IP1 accumulation assay
human wild-type 5-HT2C = human wild-type 5-HT2C (Homo sapiens, UniProt P28335); test: IP-One HTRF IP1 accumulation assay
male C57BL/6J mice [9] = test: (±)-DOI-elicited head twitch response; settings: for head twitch response elicited by (±)-DOI: 1 mg*kg^−1 (±)-DOI s.c., pretreatment s.c., every dose tested (PIMA, (2S,4R)-2k 0.3 or 3 mg kg^−1, (2R,4R)-3h 3.0 or 5.6 mg kg^−1)
5-HT2BR [10] = molecular target: T6, 5-HT2BR; test: Radioligand binding (competitive displacement and saturation), cell membranes; settings: pKi at the 5-HT2BR, single experiment excluded from the reported data, excluded: excessive or incomplete radioligand displacement
5-HT2AR = molecular target: T7, 5-HT2AR (Homo sapiens, UniProt P28223); test: as above; settings: displacement of [^3H]ketanserin; mean of n independent experiments, ± SD where n ≥ 5
T7 construct: host or cells: HEK293, transient
Protocol: as §1

H1R = molecular target: T8, H1R (Homo sapiens, UniProt P35367); test: as above
T8 construct: host or cells: CHO, transient
Protocol: as §1

F213K^4.63 5-HT2AR = molecular target: T9, F213K^4.63 5-HT2AR (Homo sapiens, UniProt P28223, F213K); test: IP1 accumulation assay at point-mutated 5-HT2AR; format: cell-based; settings: in the presence of 1 μM 5-HT; ± SD
T9 construct: expressed in transfected cells; host or cells: clonal cells
Protocol: as §1

G238S^5.42 5-HT2AR = molecular target: T10, G238S^5.42 5-HT2AR (Homo sapiens, UniProt P28223, G238S); test: IP1 accumulation assay at point-mutated 5-HT2AR; format: cell-based; settings: in the presence of 1 μM 5-HT; ± SD
T10 construct: expressed in transfected cells; host or cells: clonal cells
Protocol: as §1

I210V^4.60 5-HT2AR = molecular target: T11, I210V^4.60 5-HT2AR (Homo sapiens, UniProt P28223, I210V); test: IP1 accumulation assay at point-mutated 5-HT2AR; format: cell-based; settings: in the presence of 1 μM 5-HT; ± SD
T11 construct: expressed in transfected cells; host or cells: clonal cells
Protocol: as §1

S242A^5.46 5-HT2AR = molecular target: T12, S242A^5.46 5-HT2AR (Homo sapiens, UniProt P28223, S242A); test: IP1 accumulation assay at point-mutated 5-HT2AR; format: cell-based; settings: in the presence of 1 μM 5-HT; ± SD
T12 construct: expressed in transfected cells; host or cells: clonal cells
Protocol: as §1

V235M^5.39 5-HT2AR = molecular target: T13, V235M^5.39 5-HT2AR (Homo sapiens, UniProt P28223, V235M); test: IP1 accumulation assay at point-mutated 5-HT2AR; format: cell-based; settings: in the presence of 1 μM 5-HT; ± SD
T13 construct: expressed in transfected cells; host or cells: clonal cells
Protocol: as §1

human wild-type 5-HT2A = human wild-type 5-HT2A (Homo sapiens, UniProt P28223); test: IP-One HTRF IP1 accumulation assay; settings: antagonism of IP1 accumulation in the presence of 1 μM 5-HT; ± SD
human wild-type H1R = human wild-type H1R (Homo sapiens, UniProt P35367); test: IP-One HTRF IP1 accumulation assay; settings: competitive antagonism of histamine-stimulated IP1 accumulation (10 μM histamine)
male C57BL/6J mice [11] = test: Locomotor activity after (±)-DOI (open field); settings: pretreatment 0.3 mg*kg^−1 s.c., compared to saline pretreatment (FIG. 3B)

T6 sequence (P41595 whole entry): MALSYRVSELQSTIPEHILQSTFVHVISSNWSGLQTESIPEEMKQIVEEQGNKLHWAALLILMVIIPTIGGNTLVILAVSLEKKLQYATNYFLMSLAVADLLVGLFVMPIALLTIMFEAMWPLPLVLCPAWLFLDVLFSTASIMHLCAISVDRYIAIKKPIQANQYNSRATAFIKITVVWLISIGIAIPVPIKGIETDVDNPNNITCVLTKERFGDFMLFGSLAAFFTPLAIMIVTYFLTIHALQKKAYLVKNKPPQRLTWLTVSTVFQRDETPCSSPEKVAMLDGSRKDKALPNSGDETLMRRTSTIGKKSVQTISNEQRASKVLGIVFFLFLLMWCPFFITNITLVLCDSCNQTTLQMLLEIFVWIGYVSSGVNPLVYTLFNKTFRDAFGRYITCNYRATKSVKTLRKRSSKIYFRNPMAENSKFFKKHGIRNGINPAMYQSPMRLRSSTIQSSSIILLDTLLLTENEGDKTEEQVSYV
Chain of human wild-type 5-HT2B (P41595 whole entry): as above
Chain of 5-HT7 (P34969 1-445 isoform P34969-2): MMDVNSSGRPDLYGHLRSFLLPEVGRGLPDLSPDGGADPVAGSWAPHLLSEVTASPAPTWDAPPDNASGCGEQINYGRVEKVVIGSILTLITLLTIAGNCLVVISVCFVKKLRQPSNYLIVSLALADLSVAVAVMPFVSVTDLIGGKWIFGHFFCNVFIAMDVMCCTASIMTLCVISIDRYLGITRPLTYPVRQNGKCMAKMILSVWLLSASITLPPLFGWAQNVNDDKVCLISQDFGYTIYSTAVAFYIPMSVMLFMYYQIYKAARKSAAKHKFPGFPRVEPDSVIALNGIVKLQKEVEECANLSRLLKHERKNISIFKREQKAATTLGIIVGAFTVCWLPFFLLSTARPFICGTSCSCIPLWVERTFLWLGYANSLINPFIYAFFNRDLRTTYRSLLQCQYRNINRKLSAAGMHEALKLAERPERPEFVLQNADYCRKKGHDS
Chain of D3 (P35462 whole entry): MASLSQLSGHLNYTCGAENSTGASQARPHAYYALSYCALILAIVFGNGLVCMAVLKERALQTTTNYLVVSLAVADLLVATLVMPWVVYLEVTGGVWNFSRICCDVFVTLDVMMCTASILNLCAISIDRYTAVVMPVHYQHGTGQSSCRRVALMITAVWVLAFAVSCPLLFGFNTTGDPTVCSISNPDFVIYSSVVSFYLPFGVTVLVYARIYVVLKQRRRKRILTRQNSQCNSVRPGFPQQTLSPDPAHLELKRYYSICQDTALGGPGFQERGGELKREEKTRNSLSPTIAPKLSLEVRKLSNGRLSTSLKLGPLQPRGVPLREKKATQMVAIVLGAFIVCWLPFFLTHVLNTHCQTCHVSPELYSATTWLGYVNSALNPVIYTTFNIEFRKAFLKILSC
T2 sequence (P28223 whole entry C322K): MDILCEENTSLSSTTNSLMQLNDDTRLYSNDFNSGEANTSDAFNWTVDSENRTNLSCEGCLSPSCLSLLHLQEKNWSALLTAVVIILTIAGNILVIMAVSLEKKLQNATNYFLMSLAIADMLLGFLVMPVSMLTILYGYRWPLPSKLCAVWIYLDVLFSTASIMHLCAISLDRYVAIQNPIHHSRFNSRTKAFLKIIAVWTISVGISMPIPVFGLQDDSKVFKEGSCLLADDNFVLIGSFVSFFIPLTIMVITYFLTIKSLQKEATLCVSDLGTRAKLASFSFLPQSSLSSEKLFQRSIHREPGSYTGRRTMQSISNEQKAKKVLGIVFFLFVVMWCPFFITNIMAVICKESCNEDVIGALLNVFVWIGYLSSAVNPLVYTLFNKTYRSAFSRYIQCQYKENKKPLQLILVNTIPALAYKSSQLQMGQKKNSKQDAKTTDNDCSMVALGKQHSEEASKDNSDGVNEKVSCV
Chain of D2L (P14416 whole entry): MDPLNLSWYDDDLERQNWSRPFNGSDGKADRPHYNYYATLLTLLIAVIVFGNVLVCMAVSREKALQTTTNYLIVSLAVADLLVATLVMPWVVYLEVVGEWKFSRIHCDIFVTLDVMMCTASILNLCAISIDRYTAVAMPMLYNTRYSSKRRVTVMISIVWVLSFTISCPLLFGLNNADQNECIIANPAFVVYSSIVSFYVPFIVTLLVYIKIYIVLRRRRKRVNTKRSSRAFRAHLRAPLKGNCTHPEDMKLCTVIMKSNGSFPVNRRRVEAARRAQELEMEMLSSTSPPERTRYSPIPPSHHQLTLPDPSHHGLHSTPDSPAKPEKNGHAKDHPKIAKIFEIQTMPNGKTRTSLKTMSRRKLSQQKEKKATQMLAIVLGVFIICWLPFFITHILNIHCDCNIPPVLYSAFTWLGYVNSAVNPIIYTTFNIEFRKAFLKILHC
Chain of human wild-type H1R (P35367 whole entry): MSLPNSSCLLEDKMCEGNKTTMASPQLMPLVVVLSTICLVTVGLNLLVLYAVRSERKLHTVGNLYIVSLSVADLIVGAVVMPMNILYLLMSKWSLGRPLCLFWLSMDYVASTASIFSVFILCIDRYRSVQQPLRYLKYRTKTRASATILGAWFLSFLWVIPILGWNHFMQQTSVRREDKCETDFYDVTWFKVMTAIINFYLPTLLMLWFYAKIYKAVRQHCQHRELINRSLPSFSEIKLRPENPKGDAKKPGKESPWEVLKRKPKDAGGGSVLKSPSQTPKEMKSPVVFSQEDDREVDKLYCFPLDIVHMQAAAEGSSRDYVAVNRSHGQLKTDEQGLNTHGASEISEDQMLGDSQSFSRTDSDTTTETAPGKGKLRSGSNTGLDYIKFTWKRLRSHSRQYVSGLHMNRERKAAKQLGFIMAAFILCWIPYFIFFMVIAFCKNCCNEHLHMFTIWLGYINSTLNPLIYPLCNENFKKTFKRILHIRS
T8 sequence (P35367 whole entry): as above
T5 sequence (P35367 whole entry W158I): as the sequence (P35367 whole entry) above, with W158I counted along it
Chain of human wild-type 5-HT2C (P28335 33-458): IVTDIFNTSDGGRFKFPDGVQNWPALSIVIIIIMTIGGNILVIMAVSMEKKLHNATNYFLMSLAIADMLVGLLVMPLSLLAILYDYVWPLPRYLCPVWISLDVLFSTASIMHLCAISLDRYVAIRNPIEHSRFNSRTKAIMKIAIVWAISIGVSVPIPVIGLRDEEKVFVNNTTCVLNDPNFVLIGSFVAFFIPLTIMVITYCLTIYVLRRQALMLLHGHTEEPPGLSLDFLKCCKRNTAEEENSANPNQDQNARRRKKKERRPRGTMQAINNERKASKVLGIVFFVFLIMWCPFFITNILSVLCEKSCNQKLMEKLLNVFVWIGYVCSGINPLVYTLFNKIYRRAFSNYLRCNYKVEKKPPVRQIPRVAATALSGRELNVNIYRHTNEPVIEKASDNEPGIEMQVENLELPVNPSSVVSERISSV
T11 sequence (P28223 whole entry I210V): as the sequence (P28223 whole entry C322K) above, with I210V, K322C counted along it
T13 sequence (P28223 whole entry V235M): as the sequence (P28223 whole entry C322K) above, with V235M, K322C counted along it
Chain of human wild-type 5-HT2A (P28223 whole entry): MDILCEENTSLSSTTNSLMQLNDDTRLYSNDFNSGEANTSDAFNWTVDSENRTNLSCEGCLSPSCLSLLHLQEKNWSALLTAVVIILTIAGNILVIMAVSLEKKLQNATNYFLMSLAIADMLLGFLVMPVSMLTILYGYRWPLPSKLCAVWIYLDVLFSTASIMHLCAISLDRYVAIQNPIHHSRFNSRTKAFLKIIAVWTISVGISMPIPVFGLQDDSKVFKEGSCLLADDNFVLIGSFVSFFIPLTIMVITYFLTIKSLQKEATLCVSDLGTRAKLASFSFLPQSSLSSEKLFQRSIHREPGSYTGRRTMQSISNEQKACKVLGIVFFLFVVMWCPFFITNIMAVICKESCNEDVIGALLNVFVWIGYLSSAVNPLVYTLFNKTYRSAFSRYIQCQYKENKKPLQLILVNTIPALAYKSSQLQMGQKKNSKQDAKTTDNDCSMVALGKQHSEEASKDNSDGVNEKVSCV
T7 sequence (P28223 whole entry): as above
T12 sequence (P28223 whole entry S242A): as the sequence (P28223 whole entry C322K) above, with S242A, K322C counted along it
T9 sequence (P28223 whole entry F213K): as the sequence (P28223 whole entry C322K) above, with F213K, K322C counted along it
T10 sequence (P28223 whole entry G238S): as the sequence (P28223 whole entry C322K) above, with G238S, K322C counted along it
Chain of D231F^5.35 5-HT2AR (P28223 whole entry D231F): as the sequence (P28223 whole entry C322K) above, with D231F, K322C counted along it

CN(C)[C@@H]1Cc2ccccc2[C@@H](c2cccc(Br)c2)C1 (single isomer, unassigned) [(2S,4R)-2a, Trans-4-(3-bromophenyl)-N, N-dimethyl-1,2,3,4-tetrahydronaphthalen-2-amine]
Ki (5-HT1A; read-out: pKi 5-HT1A (converted)): > 10000 nM
Ki (5-HT7; read-out: pKi 5-HT7 (converted)): 41.7 nM
Ki (D2L; read-out: pKi D2L (converted)): 69.2 nM
Ki (D3; read-out: pKi D3 (converted)): 120 nM
inverse agonist efficacy at C322K^6.34 5-HT2ARs (reduction of basal IP1 accumulation) (C322K^6.34 5-HT2AR; below basal): ~50%
Ki (α1A-adrenergic receptor [1]): 10.2 nM
Ki (α1B-adrenergic receptor [2]): 3240 nM

[3H]C([3H])(N1CCC(C(=O)c2ccc(F)cc2)CC1)C([3H])([3H])n1c(=O)[nH]c2ccccc2c1=O [[^3H]Ketanserin]
specific binding to W158I^4.56 H1Rs (W158I^4.56 H1R [3]): cannot be detected
specific binding to D231F^5.35 5-HT2ARs (D231F^5.35 5-HT2AR): no specific binding is detected

NCCc1c[nH]cn1 [histamine]
IP1 accumulation at W158I^4.56 H1Rs in response to histamine (W158I^4.56 H1R [4]): unable to stimulate IP1 accumulation

CN(C)c1ccc(-c2cccc([C@H]3C[C@H](N(C)C)Cc4ccccc43)c2)cc1 [(2S,4R)-2k, Trans-4-(4′-(dimethylamino)-[1,1′-biphenyl]-3-yl)-N,N-dimethyl-1,2,3,4-tetra-hydronaph-thalen-2-amine]
pKi 5-HT1A (5-HT1A): 5.58^(3)
pKi 5-HT7 (5-HT7): 6.28^(3)
pKi D2L (D2L): 5.70^(3)
pKi D3 (D3): 6.92^(3)
inverse agonist efficacy at C322K^6.34 5-HT2ARs (reduction of basal IP1 accumulation) (C322K^6.34 5-HT2AR): ~60%
locomotor activity, compound administered alone (male C57BL/6J mice [5]): preserving general locomotor ability
Ki (5-HT2BR [6]): 79.4 nM
Ki (α1A-adrenergic receptor [7]): 617 nM
Ki (α1B-adrenergic receptor [8]): 646 nM
pKb at 5-HT2BRs (human wild-type 5-HT2B): 5.59±0.50
partial agonist efficacy at 5-HT2BRs, exploratory screening (human wild-type 5-HT2B; 10 μM ligand, change from basal IP1 normalized to 5-HT (FIG. 2A)): ~13 % 5-HT
agonist activity at 5-HT2BRs, full concentration-response (human wild-type 5-HT2B; FIG. 7A): did not reach statistical significance
inverse agonist efficacy (Imax) at 5-HT2CRs (human wild-type 5-HT2C): ~75%
head twitch response elicited by (±)-DOI (male C57BL/6J mice [9]): significantly attenuated the head twitch response
Ki (5-HT2BR [10]): 47.9 nM

CN(C)[C@@H]1Cc2ccccc2[C@H](c2cccc(-c3cccc(F)c3)c2)C1 (single isomer, unassigned) [(2R,4R)-3h, Cis-4-(3′-fluoro-[1,1′-biphenyl]-3-yl)-N,N-dimethyl-1,2,3,4-tetrahydronaphthalen-2-amine]
pKi 5-HT2AR (5-HT2AR): 9.46 ± 0.34
pKi H1R (H1R): 7.31 ^(2) 7.39-7.23 8.96^(3) 9.11-8.88 6.20^(2) 6.23-6.18 6.30 ± 0.10^(5) 6.42-6.14
pKi 5-HT1A (5-HT1A): <5.0^(3)
pKi 5-HT7 (5-HT7): 6.29^(4)
pKi D2L (D2L): <5.0^(3)
pKi D3 (D3): 6.21 ^(3)
inverse agonist efficacy at C322K^6.34 5-HT2ARs (reduction of basal IP1 accumulation) (C322K^6.34 5-HT2AR): ~60%
pIC50 inverse agonism at C322K^6.34 5-HT2ARs (C322K^6.34 5-HT2AR): 6.81±0.39
pKb F213K^4.63 5-HT2AR (F213K^4.63 5-HT2AR): 7.04 ± 0.17
pKb G238S^5.42 5-HT2AR (G238S^5.42 5-HT2AR): 4.59 ± 0.48
pKb I210V^4.60 5-HT2AR (I210V^4.60 5-HT2AR): 7.18 ± 0.22
pKb S242A^5.46 5-HT2AR (S242A^5.46 5-HT2AR): 6.85 ± 0.36
pKb V235M^5.39 5-HT2AR (V235M^5.39 5-HT2AR): 7.02 ± 0.26
locomotor activity, compound administered alone (male C57BL/6J mice [5]): preserving general locomotor ability
Ki (α1A-adrenergic receptor [7]): 741 nM
Ki (α1B-adrenergic receptor [8]): 794 nM
pKb Wild type 5-HT2AR (human wild-type 5-HT2A): 6.97 ± 0.37
inverse agonist efficacy (Imax) at 5-HT2CRs (human wild-type 5-HT2C): exhibits inverse agonism
pKb at H1Rs (human wild-type H1R): 5.82±0.22
head twitch response elicited by (±)-DOI (male C57BL/6J mice [9]): significantly attenuated the head twitch response

CC(C)COc1ccc(CNC(=O)N(Cc2ccc(F)cc2)C2CCN(C)CC2)cc1 [PIMA, pimavanserin, reference compound]
pKi H1R (H1R; displacement of [^3H]mepyramine, mean of n independent experiments, ± SD where n ≥ 5): 5.50^(2)
locomotor activity, compound administered alone (male C57BL/6J mice [5]): suppresses locomotor activity
Ki (5-HT2BR [6]): 437 nM
Kb (human wild-type 5-HT2B): 1380 nM
pKb at H1Rs (human wild-type H1R): little, if any, antagonism
attenuation of head twitch response compared with the same dose of (2S,4R)-2k (male C57BL/6J mice [9]; 0.3 mg*kg^−1 s.c.): significantly more effective
head twitch response elicited by (±)-DOI (male C57BL/6J mice [9]): significantly attenuated the head twitch response
locomotor activity (distance traveled) of mice given 1 mg*kg^−1 DOI (male C57BL/6J mice [11]): locomotor suppression
